According to patent publication US9358217B2, “Methods for reducing triglyceride, total cholesterol and low density lipoprotein blood levels” (MediciNova, Inc., priority 2013, dated 2016):

How the values were obtained:
Format in all cases: in vivo
[1] = system: triglyceride blood levels; assay: Triglyceride blood levels in human subjects upon MN-001 administration
Experimental: Human subjects were administered various daily amounts of MN-001 and placebo and their triglyceride blood levels (mg/deciliter or dl) measured at various time points. […] As to the “week 14” time point in Table 1-D, it provides triglyceride levels of follow-up patients after MN-001 administration was stopped at 12 weeks.

[2] = system: total cholesterol blood levels; assay: Total cholesterol blood levels in human subjects upon MN-001 administration
Experimental: Human subjects were administered various daily amounts of MN-001 and placebo and their total cholesterol blood levels (mg/dl) measured at various time points.

[3] = system: LDL blood levels; assay: Total LDL blood levels in human subjects upon MN-001 administration
Experimental: Human subjects were administered various daily amounts of MN-001 and placebo and their total LDL blood levels (mg/dl) measured at various time points.

[4] = system: blood levels of HDL; assay: Blood levels of HDL upon administration of MN-001; settings: human subjects
[5] = human subjects, various daily amounts, with certain exceptions

## CCCc1c(SCCCOc2ccc(C(C)=O)c(OCCCC(=O)O)c2CCC)ccc(C(C)=O)c1O [MN-001]
[1]; Table 1-A Asthma Subjects, 500 mg tid (N = 36), Screening
  mean triglyceride blood level: 109.5 mg/dL
[1]; Table 1-A Asthma Subjects, 500 mg tid (N = 36), Week 4
  mean triglyceride blood level: 91.6 mg/dL
[1]; Table 1-A Asthma Subjects, 750 mg bid (N = 36), Screening
  mean triglyceride blood level: 125.5 mg/dL
[1]; Table 1-A Asthma Subjects, 750 mg bid (N = 36), Week 4
  mean triglyceride blood level: 98.5 mg/dL
[1]; Table 1-A Asthma Subjects, 750 mg qd (N = 36), Screening
  mean triglyceride blood level: 112.2 mg/dL
[1]; Table 1-A Asthma Subjects, 750 mg qd (N = 36), Week 4
  mean triglyceride blood level: 117.2 mg/dL
[1]; Table 1-B Interstitial Cystitis Subjects, 500 mg bid (N = 106), Baseline
  mean triglyceride blood level: 135.7 mg/dL
[1]; Table 1-B Interstitial Cystitis Subjects, 500 mg bid (N = 106), Week 4
  mean triglyceride blood level: 106.7 mg/dL
[1]; Table 1-B Interstitial Cystitis Subjects, 500 mg bid (N = 106), Week 8
  mean triglyceride blood level: 110.7 mg/dL
[1]; Table 1-B Interstitial Cystitis Subjects, 500 mg qd (N = 94), Baseline
  mean triglyceride blood level: 136.1 mg/dL
[1]; Table 1-B Interstitial Cystitis Subjects, 500 mg qd (N = 94), Week 4
  mean triglyceride blood level: 109.5 mg/dL
[1]; Table 1-B Interstitial Cystitis Subjects, 500 mg qd (N = 94), Week 8
  mean triglyceride blood level: 124.7 mg/dL
[1]; Table 1-C Healthy Subjects, 1500 mg/day × 10 days (N = 11), Day 11
  mean triglyceride blood level: 87.5 mg/dL
[1]; Table 1-C Healthy Subjects, 1500 mg/day × 10 days (N = 11), Screening
  mean triglyceride blood level: 145.4 mg/dL
[1]; Table 1-D Asthma Subjects, 500 mg tid (N = 54), Baseline
  mean triglyceride blood level: 159.4 mg/dL
[1]; Table 1-D Asthma Subjects, 500 mg tid (N = 54), Week 4
  mean triglyceride blood level: 112.5 mg/dL
[1]; Table 1-D Asthma Subjects, 500 mg tid (N = 54), Week 8
  mean triglyceride blood level: 132.4 mg/dL
[1]; Table 1-D Asthma Subjects, 500 mg tid (N = 54), Week 12
  mean triglyceride blood level: 147.7 mg/dL
[1]; Table 1-D Asthma Subjects, 500 mg tid (N = 54), Week 14 (follow-up, administration stopped at 12 weeks)
  mean triglyceride blood level: 134.1 mg/dL
[1]; Table 1-D Asthma Subjects, 750 mg bid (N = 53), Baseline
  mean triglyceride blood level: 117.0 mg/dL
[1]; Table 1-D Asthma Subjects, 750 mg bid (N = 53), Week 4
  mean triglyceride blood level: 94.1 mg/dL
[1]; Table 1-D Asthma Subjects, 750 mg bid (N = 53), Week 8
  mean triglyceride blood level: 101.4 mg/dL
[1]; Table 1-D Asthma Subjects, 750 mg bid (N = 53), Week 12
  mean triglyceride blood level: 114.0 mg/dL
[1]; Table 1-D Asthma Subjects, 750 mg bid (N = 53), Week 14 (follow-up, administration stopped at 12 weeks)
  mean triglyceride blood level: 104.6 mg/dL
[1]; Table 1-D, week 14, after administration was stopped at 12 weeks
  triglyceride levels during follow-up period compared with a control group: continued their downward trend
[1]; [5]
  effect on mean triglyceride blood levels compared to control subjects (placebo): substantial lowering
[2]; Table 2-A Asthma Subjects, 500 mg tid (N = 36), Screening
  mean total cholesterol blood level: 193.5 mg/dL
[2]; Table 2-A Asthma Subjects, 500 mg tid (N = 36), Week 4
  mean total cholesterol blood level: 183.1 mg/dL
[2]; Table 2-A Asthma Subjects, 750 mg bid (N = 36), Screening
  mean total cholesterol blood level: 180.5 mg/dL
[2]; Table 2-A Asthma Subjects, 750 mg bid (N = 36), Week 4
  mean total cholesterol blood level: 181.6 mg/dL
[2]; Table 2-A Asthma Subjects, 750 mg qd (N = 36), Screening
  mean total cholesterol blood level: 191.5 mg/dL
[2]; Table 2-A Asthma Subjects, 750 mg qd (N = 36), Week 4
  mean total cholesterol blood level: 180.6 mg/dL
[2]; Table 2-B Interstitial Cystitis Subjects, 500 mg bid (N = 106), Baseline
  mean total cholesterol blood level: 174.5 mg/dL
[2]; Table 2-B Interstitial Cystitis Subjects, 500 mg bid (N = 106), Week 4
  mean total cholesterol blood level: 169.8 mg/dL
[2]; Table 2-B Interstitial Cystitis Subjects, 500 mg bid (N = 106), Week 8
  mean total cholesterol blood level: 168.7 mg/dL
[2]; Table 2-B Interstitial Cystitis Subjects, 500 mg qd (N = 94), Baseline
  mean total cholesterol blood level: 173.8 mg/dL
[2]; Table 2-B Interstitial Cystitis Subjects, 500 mg qd (N = 94), Week 4
  mean total cholesterol blood level: 171.5 mg/dL
[2]; Table 2-B Interstitial Cystitis Subjects, 500 mg qd (N = 94), Week 8
  mean total cholesterol blood level: 170.5 mg/dL
[2]; Table 2-C Healthy Subjects, 1500 mg/day × 10 days (N = 11), Day 11
  mean total cholesterol blood level: 167.8 mg/dL
[2]; Table 2-C Healthy Subjects, 1500 mg/day × 10 days (N = 11), Screening
  mean total cholesterol blood level: 176.9 mg/dL
[2]; Table 2-D Asthma Subjects, 500 mg tid (N = 54), Baseline
  mean total cholesterol blood level: 182.5 mg/dL
[2]; Table 2-D Asthma Subjects, 500 mg tid (N = 54), Week 4
  mean total cholesterol blood level: 179.3 mg/dL
[2]; Table 2-D Asthma Subjects, 500 mg tid (N = 54), Week 8
  mean total cholesterol blood level: 176.9 mg/dL
[2]; Table 2-D Asthma Subjects, 500 mg tid (N = 54), Week 12
  mean total cholesterol blood level: 169.6 mg/dL
[2]; Table 2-D Asthma Subjects, 500 mg tid (N = 54), Week 14 (follow-up, administration stopped at 12 weeks)
  mean total cholesterol blood level: 182.8 mg/dL
[2]; Table 2-D Asthma Subjects, 750 mg bid (N = 53), Baseline
  mean total cholesterol blood level: 185.4 mg/dL
[2]; Table 2-D Asthma Subjects, 750 mg bid (N = 53), Week 4
  mean total cholesterol blood level: 181.6 mg/dL
[2]; Table 2-D Asthma Subjects, 750 mg bid (N = 53), Week 8
  mean total cholesterol blood level: 187.3 mg/dL
[2]; Table 2-D Asthma Subjects, 750 mg bid (N = 53), Week 12
  mean total cholesterol blood level: 192.4 mg/dL
[2]; Table 2-D Asthma Subjects, 750 mg bid (N = 53), Week 14 (follow-up, administration stopped at 12 weeks)
  mean total cholesterol blood level: 182.6 mg/dL
[2]; [5]
  effect on mean total cholesterol blood levels compared to control subjects (placebo): substantial lowering
[3]; Table 3-A Asthma Subjects, 500 mg tid (N = 36), Screening
  mean LDL blood level: 113.8 mg/dL
[3]; Table 3-A Asthma Subjects, 500 mg tid (N = 36), Week 4
  mean LDL blood level: 105.4 mg/dL
[3]; Table 3-A Asthma Subjects, 750 mg bid (N = 36), Screening
  mean LDL blood level: 100.3 mg/dL
[3]; Table 3-A Asthma Subjects, 750 mg bid (N = 36), Week 4
  mean LDL blood level: 104.7 mg/dL
[3]; Table 3-A Asthma Subjects, 750 mg qd (N = 36), Screening
  mean LDL blood level: 115.7 mg/dL
[3]; Table 3-A Asthma Subjects, 750 mg qd (N = 36), Week 4
  mean LDL blood level: 106.9 mg/dL
[3]; Table 3-B Interstitial Cystitis Subjects, 500 mg bid (N = 106), Baseline
  mean LDL blood level: 62.6 mg/dL
[3]; Table 3-B Interstitial Cystitis Subjects, 500 mg bid (N = 106), Week 4
  mean LDL blood level: 54.5 mg/dL
[3]; Table 3-B Interstitial Cystitis Subjects, 500 mg bid (N = 106), Week 8
  mean LDL blood level: 52.2 mg/dL
[3]; Table 3-B Interstitial Cystitis Subjects, 500 mg qd (N = 94), Baseline
  mean LDL blood level: 65.8 mg/dL
[3]; Table 3-B Interstitial Cystitis Subjects, 500 mg qd (N = 94), Week 4
  mean LDL blood level: 60.1 mg/dL
[3]; Table 3-B Interstitial Cystitis Subjects, 500 mg qd (N = 94), Week 8
  mean LDL blood level: 55.5 mg/dL
[3]; Table 3-C Healthy Subjects, 1500 mg/day × 10 days (N = 11), Day 11
  mean LDL blood level: 103.0 mg/dL
[3]; Table 3-C Healthy Subjects, 1500 mg/day × 10 days (N = 11), Screening
  mean LDL blood level: 99.1 mg/dL
[3]; Table 3-D Asthma Subjects, 500 mg tid (N = 54), Baseline
  mean LDL blood level: 100.2 mg/dL
[3]; Table 3-D Asthma Subjects, 500 mg tid (N = 54), Week 4
  mean LDL blood level: 99.5 mg/dL
[3]; Table 3-D Asthma Subjects, 500 mg tid (N = 54), Week 8
  mean LDL blood level: 99.1 mg/dL
[3]; Table 3-D Asthma Subjects, 500 mg tid (N = 54), Week 12
  mean LDL blood level: 92.5 mg/dL
[3]; Table 3-D Asthma Subjects, 500 mg tid (N = 54), Week 14 (follow-up, administration stopped at 12 weeks)
  mean LDL blood level: 102.6 mg/dL
[3]; Table 3-D Asthma Subjects, 750 mg bid (N = 53), Baseline
  mean LDL blood level: 106.3 mg/dL
[3]; Table 3-D Asthma Subjects, 750 mg bid (N = 53), Week 4
  mean LDL blood level: 102.3 mg/dL
[3]; Table 3-D Asthma Subjects, 750 mg bid (N = 53), Week 8
  mean LDL blood level: 106.6 mg/dL
[3]; Table 3-D Asthma Subjects, 750 mg bid (N = 53), Week 12
  mean LDL blood level: 110.9 mg/dL
[3]; Table 3-D Asthma Subjects, 750 mg bid (N = 53), Week 14 (follow-up, administration stopped at 12 weeks)
  mean LDL blood level: 103.6 mg/dL
[3]; [5]
  effect on mean LDL blood levels compared to control subjects (placebo): substantial lowering
[4]
  effect on blood levels of HDL: not altered substantially, if at all
